Results as given in patent publication US6596772B1, “Phosphate mimics and methods of treatment using phosphatase inhibitors” (Sugen, Inc., priority 1999, dated 2003).
pIC50: −log10 of the molar value. Read-outs that look alike come from different tables or passages of the source.

Assays:
Assay in all cases: PTP IC50 assay, pNPP or FDP as substrate
Format in all cases: biochemical
PTP MEG2 = target: T1, PTP MEG2 (Homo sapiens, UniProt P43378); details: 25° C.
T1 construct: made in house; host or cells: E. coli BL-21 (pGEX 6P-1)
T1 sequence (P43378 262-593 limits assumed): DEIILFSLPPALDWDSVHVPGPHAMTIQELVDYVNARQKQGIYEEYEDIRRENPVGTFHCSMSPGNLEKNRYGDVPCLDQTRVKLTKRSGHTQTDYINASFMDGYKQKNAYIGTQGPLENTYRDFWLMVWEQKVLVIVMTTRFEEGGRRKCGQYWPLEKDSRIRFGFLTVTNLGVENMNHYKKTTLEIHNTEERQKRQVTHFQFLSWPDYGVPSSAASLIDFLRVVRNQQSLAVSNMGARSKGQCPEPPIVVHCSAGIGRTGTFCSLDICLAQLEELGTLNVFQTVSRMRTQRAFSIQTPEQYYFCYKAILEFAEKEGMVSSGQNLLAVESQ
Procedure: (§1) The following in vitro assay procedure is preferred to determine the level of activity and effect of the different compounds of the present invention on one or more of the PTPs. Similar assays can be designed along the same lines for any PTP using techniques well known in the art.
(§2) The catalytic assays described herein are performed in a 96-well format. The general procedure begins with the determination of PTP optimal pH using a three-component buffer system that minimizes ionic strength variations across a wide range of buffer pH. Next, the Michaelis-Menten constant, or Km, is determined for each specific substrate-PTP system. This Km value is subsequently used as the substrate reaction concentration for compound screening. Finally, the test PTP is exposed to varying concentrations of compound for fifteen minutes and allowed to react with substrate for ten minutes. The results are plotted as percent inhibition versus compound concentration and the IC50 interpolated from the plot.
(§3) All assays were performed using pNPP or FDP as substrate. The optimum pH was determined for each PTP used.
(§4) PTPase activity was assayed at 25° C. in a 100-μl reaction mixture containing an appropriate concentration of pNPP or FDP as substrate. The reaction was initiated by addition of the PTP and quenched after 10 min by addition of 50 μl of IN NaOH. The non-enzymatic hydrolysis of the substrate was corrected by measuring the control without the addition of the enzyme. The amount of p-nitrophenol produced was determined from the absorbance at 410 nm. To determine the kinetic parameter, Km, the initial velocities were measured at various substrate concentrations and the data were fitted to the Michaelis equation where velocity=(Vmax*[S])/(Km+[S]), and [S]=substrate reaction concentration.
(§5) The effect of the compounds on PTP was evaluated at 25° C. using pNPP or FDP as substrate. PTP was pre-incubated for fifteen minutes with various concentrations of compound. Substrate was then added at a fixed concentration (usually equal to the Km previously calculated). After 10 minutes, NaOH was added to stop the reaction. The hydrolysis of pNPP was followed at 410 nm on the Biotek Powerwave 200 microplate scanning spectrophotometer. The percent inhibition was calculated as follows: Percent Inhibition=[(control signal−compound signal)/control signal] ×100%. The IC50 was then determined by interpolation of a percent inhibition versus compound concentration plot.
(§6) Plasmids designed for bacterial GST-PTP fusion protein expression were derived by insertion of PCR-generated human PTP fragments into pGEX vectors (Pharmacia Biotech). Several of these constructs were then used to subclone phosphatases into pFastBac-1for expression in Sf-9 insect cells. Oligonucleotides used for the initial amplification of PTP genes are shown below. The cDNAs were prepared using the Gilbo BRL superscript preamplification system on RNAs purchased from Clontech.
The PTP MEG2 cDNA was amplified from human placenta single strand cDNA (Clontech RNA) using the following oligonucleotides: 5′oligo: 5′-[…]-3′ (SEQ ID NO: 8) 3′oligo: 5′-[…]-3′ (SEQ ID NO: 9) and subsequently ligated into pGex 6P-1 Eco RI/Xho I sites.

PTP 1B = target: T2, PTP 1B (Homo sapiens, UniProt P18031); details: pNPP or FDP as substrate, 25° C.
T2 construct: made in house; host or cells: Sf-9 insect cells (pFastBac-G2T)
T2 sequence (P18031 1-435): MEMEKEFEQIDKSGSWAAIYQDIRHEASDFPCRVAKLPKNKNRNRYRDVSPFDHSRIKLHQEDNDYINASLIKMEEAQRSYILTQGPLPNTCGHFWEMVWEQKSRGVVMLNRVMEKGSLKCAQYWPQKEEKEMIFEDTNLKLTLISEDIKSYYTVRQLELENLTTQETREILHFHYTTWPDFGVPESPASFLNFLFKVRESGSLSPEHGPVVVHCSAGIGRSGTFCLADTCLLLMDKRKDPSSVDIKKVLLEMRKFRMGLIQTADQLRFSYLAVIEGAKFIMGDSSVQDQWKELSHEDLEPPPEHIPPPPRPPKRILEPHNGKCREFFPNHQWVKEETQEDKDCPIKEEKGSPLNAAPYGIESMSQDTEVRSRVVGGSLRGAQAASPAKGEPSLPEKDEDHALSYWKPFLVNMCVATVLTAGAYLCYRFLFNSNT
Procedure: as §1, §2, §3, §4, §5, §6
The PTP1b cDNA was amplified from human placenta single strand cDNA (Clontech RNA) using the following oligonucleotides: 5′oligo: 5′-[…] (SEQ ID NO: 4) 3′oligo: 5′-[…] (SEQ ID NO: 5) It was subsequently ligated into pFasBac G2TBamH1Xba-1 sites.

PTP BETA = target: T3, PTP BETA (Homo sapiens, UniProt P23467); details: pNPP or FDP as substrate, 25° C.
T3 construct: The catalytic domain was amplified using the following oligonucleotides; made in house; host or cells: E. coli BL-21 (pGEX 6P-1)
Procedure: as §1, §2, §3, §4, §5, §6
The PTP Beta cDNA used has been described earlier (Levy et al., 1993, J. Biol. Chem, 268:10573-10581). The catalytic domain was amplified using the following oligonucleotides: 5′oligo: 5′-[…]-3′ (SEQ ID NO: 16) 3′oligo: 5′-[…]-3′ (SEQ ID NO: 17) and subsequently cloned into the Eco RI/Xho I sites of pGEX 6P-1.

[1] = pNPP or FDP as substrate, read-out: PTP IC50 MEG2

T3 sequence (P23467 1653-1997): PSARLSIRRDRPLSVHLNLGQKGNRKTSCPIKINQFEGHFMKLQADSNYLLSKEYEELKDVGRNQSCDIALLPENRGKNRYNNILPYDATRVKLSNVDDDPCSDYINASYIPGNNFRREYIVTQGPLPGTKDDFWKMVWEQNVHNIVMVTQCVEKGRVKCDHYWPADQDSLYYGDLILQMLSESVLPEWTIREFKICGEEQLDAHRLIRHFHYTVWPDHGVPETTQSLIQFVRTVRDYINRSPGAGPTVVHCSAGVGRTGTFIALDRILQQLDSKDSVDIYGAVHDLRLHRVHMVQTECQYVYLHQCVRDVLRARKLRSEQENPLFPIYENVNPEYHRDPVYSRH

pIC50 (PTP MEG2; [1]) | pIC50 (PTP 1B; read-out: PTP IC50 1B) | pIC50 (PTP BETA; read-out: PTP IC50 Beta) | Structure (SMILES) | pIC50 (PTP MEG2; PTP IC50 MEG2, pNPP or FDP as substrate) | pIC50 (PTP 1B; PTP IC50 1B) | pIC50 (PTP BETA; PTP IC50 Beta)
4.28 | 4.37 | 5.72 | CCOC(=O)COc1ccc(S(=O)(=O)c2ccc(Oc3ccc(S(=O)(=O)C(F)(F)F)cc3)cc2)cc1 [Example 19, {4-[4-(4-trifluoromethanesulfonyl-phenoxy)-benzenesulfonyl]-phenoxy}-acetic acid ethyl ester] | – | – | –
< 4.00 | 4.36 | 5.06 | O=C(Cc1ccccc1CC(=O)Nc1cccc(S(=O)(=O)C(F)(F)F)c1)Nc1cccc(S(=O)(=O)C(F)(F)F)c1 [Example 20, N-(3-Trifluoromethanesulfonyl-phenyl)-2-{2-[(3-trifluoromethanesulfonyl-phenylcarbamoyl)-methyl]-phenyl}-acetamide] | – | – | –
4.31 | 4.45 | 5.51 | O=C(Cc1cccc(CC(=O)Nc2cccc(S(=O)(=O)C(F)(F)F)c2)c1)Nc1cccc(S(=O)(=O)C(F)(F)F)c1 [Example 21, N-(3-Trifluoromethanesulfonyl-phenyl)-2-{3-[(3-trifluoromethanesulfonyl-phenylcarbamoyl)-methyl]-phenyl}-acetamide] | – | – | –
4.56 | 4.59 | 5.85 | O=C(Cc1ccc(CC(=O)Nc2cccc(S(=O)(=O)C(F)(F)F)c2)cc1)Nc1cccc(S(=O)(=O)C(F)(F)F)c1 [Example 22, N-(3-Trifluoromethanesulfonyl-phenyl)-2-{4-[(3-trifluoromethanesulfonyl-phenylcarbamoyl)-methyl]-phenyl}-acetamide] | – | – | –
4.28 | 4.79 | 6.46 | CCNc1ccc(S(=O)(=O)C(F)(F)F)cc1NC(=O)Cc1ccc(S(C)(=O)=O)cc1 [Example 25, N-(2-Ethylamino-5-trifluoromethanesulfonyl-phenyl)-2-(4-methanesulfonyl-phenyl)-acetamide] | – | – | –
4.04 | < 4.00 | 5.54 | CCOC(=O)c1cc(Oc2ccc(S(=O)(=O)C(F)(F)F)cc2[N+](=O)[O-])c(C(=O)OCC)cc1O [Example 26, 2-Hydroxy-5-(2-nitro-4-trifluoromethanesulfonyl-phenoxy)-terephthalic acid diethyl ester] | – | – | –
< 4.00 | < 4.00 | 4.21 | O=C(O)Cc1ccccc1CC(=O)Nc1cccc(S(=O)(=O)C(F)(F)F)c1 [Example 27, {2-[(3-Trifluoromethanesulfonyl-phenylcarbamoyl)-methyl]-phenyl}-acetic acid] | – | – | –
4.48 | 4.56 | 5.49 | O=C(O)Cc1cccc(CC(=O)Nc2cccc(S(=O)(=O)C(F)(F)F)c2)c1 [Example 28, {3-[(3-Trifluoromethanesulfonyl-phenylcarbamoyl)-methyl]-phenyl}-acetic acid] | – | – | –
4.17 | 4.45 | 5.19 | O=C(O)Cc1ccc(CC(=O)Nc2cccc(S(=O)(=O)C(F)(F)F)c2)cc1 [Example 29, {4-[(3-Trifluoromethanesulfonyl-phenylcarbamoyl)-methyl]-phenyl}-acetic acid] | – | – | –
– | – | – | NC(=O)c1cc(Oc2ccc(S(=O)(=O)C(F)(F)F)cc2[N+](=O)[O-])cc(Oc2ccc(S(=O)(=O)C(F)(F)F)cc2[N+](=O)[O-])c1 [Example 30, 3,5-Bis-(2-nitro-4-trifluoromethanesulfonyl-phenoxy)-benzamide] | 4.19 | < 4.00 | 5.47
5.02 | 5.21 | 5.35 | O=C(O)c1cc(Oc2ccc(S(=O)(=O)C(F)(F)F)cc2)cc(Oc2ccc(S(=O)(=O)C(F)(F)F)cc2)c1 [Example 31, 3,5-Bis-(4-trifluoromethanesulfonyl-phenoxy)-benzoic acid] | – | – | –
< 4.00 | 4.22 | 4.40 | O=S(=O)(Nc1ccc(CCc2ccc(NS(=O)(=O)C(F)(F)F)cc2)cc1)C(F)(F)F [Example 66, 1,2-Bis(4-trifluoromethylsulfonamidophenyl)ethane] | – | – | –
4.07 | 4.46 | 4.25 | Cc1cc(NS(=O)(=O)C(F)(F)F)ccc1CCc1ccc(NS(=O)(=O)C(F)(F)F)cc1C [Example 67, 1,2-Bis(2-methyl-4-trifluoromethylsulfonamidophenyl)ethane] | – | – | –
4.46 | 4.35 | 4.82 | CC(C)(COc1ccc(NS(=O)(=O)C(F)(F)F)cc1)COc1ccc(NS(=O)(=O)C(F)(F)F)cc1 [Example 68, 1,3-Bis(4-trifluoromethylsulfonamidophenoxy)-2,2-dimethylpropane] | – | – | –
< 4.00 | 4.10 | < 4.00 | O=S(=O)(Nc1ccc(OCCCOc2ccc(NS(=O)(=O)C(F)(F)F)cc2)cc1)C(F)(F)F [Example 69, 1,3-Bis(4-trifluoromethylsulfonamidophenoxy)propane] | – | – | –
4.15 | 4.07 | 5.15 | O=S(=O)(Nc1ccc(OCCCCOc2ccc(NS(=O)(=O)C(F)(F)F)cc2)cc1)C(F)(F)F [Example 70, 1,4-Bis(4-trifluoromethylsulfonamidophenoxy)butane] | – | – | –

Structure (SMILES) | pIC50 (PTP MEG2; [1]) | pIC50 (PTP 1B; read-out: PTP IC50 1B) | pIC50 (PTP BETA; read-out: PTP IC50 Beta) | pIC50 (PTP MEG2; PTP IC50 MEG2, pNPP or FDP as substrate) | pIC50 (PTP 1B; PTP IC50 1B) | pIC50 (PTP BETA; PTP IC50 Beta)
O=[N+]([O-])c1cc(S(=O)(=O)C(F)(F)F)ccc1Oc1cc(CN2CCOCC2)c(Oc2ccc(S(=O)(=O)C(F)(F)F)cc2[N+](=O)[O-])cc1CN1CCOCC1 [Example 23, 3,6-Bis-(morpholin-4-ylmethyl)-2,5-bis-(2-nitro-4-trifluoromethanesulfonyl-phenoxy)-benzene] | < 4.00 | 4.94 | 5.96 | – | – | –
CN(C)CC(COc1ccc(S(=O)(=O)C(F)(F)F)cc1[N+](=O)[O-])Oc1ccc(S(=O)(=O)C(F)(F)F)cc1[N+](=O)[O-] (stereo not drawn) [Example 24, [2,3-Bis-(2-nitro-4-trifluoromethanesulfonyl-phenoxy)-propyl]-dimethyl-amine] | < 4.00 | < 4.00 | 5.29 | – | – | –
